These results are taken from patent US20030211152A1, “Controlled release formulation for treating COPD” (SmithKline Beecham Corporation, priority 1999, published 2003).

Molecules are shown by their SMILES. Like-named read-outs stand apart in the source and are kept apart here.

One data set concerns PDE 4. Kind of data set: IC50 ratio: competing with [3H]R-rolipram binding to high affinity form over inhibiting catalytic activity of low affinity form. The data set is classed as biochemical. The following applies: 1 nM [3H]R-rolipram binding; 1 uM [3H]-cAMP as substrate. The text has this: This invention covers controlled release formulations which contain a PDE 4 inhibitor, particularly an inhibitor that is specific for PDE 4. A preferred group of inhibitors are those that have an IC50 ratio (high/low binding) of about 0.1 or greater as further described in co-pending U.S. application Ser. No. 08/456,274 and its published counter-part PCT application serial number published Jan. 5, 1995 as WO95/00139; this application is incorporated herein in full by reference as if fully set forth herein. A preferred standard for PDE 4-specific inhibitors which can be used in this invention is one where the compound has an IC50 ratio of about 0.1 or greater; said ratio being the ratio of the IC50 value for competing with the binding of 1 nM of [^3H]R-rolipram to a form of PDE 4 which binds rolipram with a high affinity over the IC50 value for inhibiting the PDE 4 catalytic activity of a form which binds rolipram with a low affinity using 1 uM[^3H]-cAMP as the substrate.

A short description of data set [1]: Side effects with increasing oral dose and blood levels. The data set is classed as in vivo. The following applies: as blood levels increase with increased levels of dosing. The text has this: While to date no one has been able to identify a compound which is completely without unwanted CNS side effects at all possible dosage levels, at least one compound has been identified that meets the criteria described above, namely cis-4-cyano-4-[3-(cyclopentyloxy)-4-methoxyphenyl]cyclohexane-1-carboxylic acid. […] This is particularly true with COPD. […] The controlled release formulations of this invention allow for administering in a single dosage form several times the quantity that can otherwise be administered of a PDE4 inhibitor and achieve both initial therapeutically effective blood levels and maintain these blood level for an extended period of time. PDE4 inhibitors, particularly PDE4-specific inhibitors are useful in treating other diseases especially in the areas of inflammation, (e.g., asthma, chronic obstructive pulmonary disease, inflammatory bowel disease, rheumatoid arthritis), affects related to tumor necrosis factor and to cognition impairment (e.g., multi-infarct dementia, cognitive dysfunction, or stroke). This invention is useful in treating these diseases as well. These formulations and the method descibed herein can be used for prophylactic treatment as well. Additional other therapeutic or prophylactic agents can be combined with a PDE4 inhibitor in these formulations as well.

For data set [2] the following is noted: clinical studies / indications; cited from earlier work.

Consider `COc1ccc([C@]2(C#N)CC[C@@H](C(=O)O)CC2)cc1OC1CCCC1` [cis-4-cyano-4-[3-(cyclopentyloxy)-4-methoxyphenyl]cyclohexane-1-carboxylic acid], for which the “therapeutic ratio (IC50 ratio high/low binding)” value in the data set with PDE 4 is listed as “greater than 0.1”. Further, in data set [1], the side effects result is reported as “undesirable side effects such as those attributed to CNS activity begin to be manifested”.
On to `CCCCn1c(=O)c2c(ncn2CC(C)=O)n(CCCC)c1=O` [denbufylline], for which the side effects entry in data set [2] is “pyrosis, nausea and emesis”.
In the case of `COc1ccc(C2CNC(=O)C2)cc1OC1CCCC1` (stereo not shown) [rolipram], the side effects entry in data set [2] was “psychotropic activity and produces gastrointestinal effects, e.g., pyrosis, nausea and emesis”.
